Data reported in patent publication US12534469B2 (CHILDREN'S HOSPITAL MEDICAL CENTER, priority 2020, dated 2026).
Where two headings read alike, the source gives them in different places.

Assays:
IRAK4 = target: T1, IRAK4 (Homo sapiens, UniProt Q9NWZ3); assay: RBC HotSpot Kinase Assay, IRAK4; format: biochemical; set-up: purchased Reaction Biology (RBC HotSpot Kinase Assay)
T1 sequence (Q9NWZ3 1-460): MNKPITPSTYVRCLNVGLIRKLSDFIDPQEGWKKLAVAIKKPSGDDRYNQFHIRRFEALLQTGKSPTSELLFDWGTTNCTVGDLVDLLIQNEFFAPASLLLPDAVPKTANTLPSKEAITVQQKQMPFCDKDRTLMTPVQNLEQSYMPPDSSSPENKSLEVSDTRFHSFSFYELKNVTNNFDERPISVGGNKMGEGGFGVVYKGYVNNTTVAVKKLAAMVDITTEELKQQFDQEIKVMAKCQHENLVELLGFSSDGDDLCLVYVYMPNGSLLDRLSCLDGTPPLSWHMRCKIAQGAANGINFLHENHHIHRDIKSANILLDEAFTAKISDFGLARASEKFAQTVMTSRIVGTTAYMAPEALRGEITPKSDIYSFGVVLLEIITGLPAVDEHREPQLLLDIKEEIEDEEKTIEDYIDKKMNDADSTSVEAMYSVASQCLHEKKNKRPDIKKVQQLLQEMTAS
How it was run: (§1)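 Radiometric filter-binding (HotSpot) activity assay on isolated recombinant kinase, possibly truncated or catalytic domain only, in 20 mM Hepes pH 7.5, 10 mM MgCl2, 1 mM EGTA, 2 mM DTT, 1% DMSO. Compound preincubated 20 min with kinase and substrate, then ^33P-ATP added. Reaction 2 h at room temperature, read by P81 filter binding.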

FLT3 = target: T2, FLT3 (Homo sapiens, UniProt P36888); assay: RBC HotSpot Kinase Assay, FLT3; format: biochemical
T2 construct: purchased Reaction Biology (RBC HotSpot Kinase Assay)
T2 sequence (P36888 564-958 limits assumed): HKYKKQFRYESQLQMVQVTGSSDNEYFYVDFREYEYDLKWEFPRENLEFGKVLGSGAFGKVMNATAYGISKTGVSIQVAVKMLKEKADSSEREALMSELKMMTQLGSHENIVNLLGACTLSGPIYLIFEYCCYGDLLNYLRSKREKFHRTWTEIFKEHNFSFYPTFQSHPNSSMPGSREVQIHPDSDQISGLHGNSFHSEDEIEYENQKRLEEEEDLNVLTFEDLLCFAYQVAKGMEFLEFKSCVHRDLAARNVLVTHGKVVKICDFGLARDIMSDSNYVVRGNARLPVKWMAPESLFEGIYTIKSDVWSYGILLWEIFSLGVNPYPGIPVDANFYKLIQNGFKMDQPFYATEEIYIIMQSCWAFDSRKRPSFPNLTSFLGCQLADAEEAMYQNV
How it was run: as §1

IRAK1 = target: T3, IRAK1 (Homo sapiens, UniProt P51617); assay: RBC HotSpot Kinase Assay, IRAK1; format: biochemical
T3 construct: purchased Reaction Biology (RBC HotSpot Kinase Assay)
T3 sequence (P51617 whole entry): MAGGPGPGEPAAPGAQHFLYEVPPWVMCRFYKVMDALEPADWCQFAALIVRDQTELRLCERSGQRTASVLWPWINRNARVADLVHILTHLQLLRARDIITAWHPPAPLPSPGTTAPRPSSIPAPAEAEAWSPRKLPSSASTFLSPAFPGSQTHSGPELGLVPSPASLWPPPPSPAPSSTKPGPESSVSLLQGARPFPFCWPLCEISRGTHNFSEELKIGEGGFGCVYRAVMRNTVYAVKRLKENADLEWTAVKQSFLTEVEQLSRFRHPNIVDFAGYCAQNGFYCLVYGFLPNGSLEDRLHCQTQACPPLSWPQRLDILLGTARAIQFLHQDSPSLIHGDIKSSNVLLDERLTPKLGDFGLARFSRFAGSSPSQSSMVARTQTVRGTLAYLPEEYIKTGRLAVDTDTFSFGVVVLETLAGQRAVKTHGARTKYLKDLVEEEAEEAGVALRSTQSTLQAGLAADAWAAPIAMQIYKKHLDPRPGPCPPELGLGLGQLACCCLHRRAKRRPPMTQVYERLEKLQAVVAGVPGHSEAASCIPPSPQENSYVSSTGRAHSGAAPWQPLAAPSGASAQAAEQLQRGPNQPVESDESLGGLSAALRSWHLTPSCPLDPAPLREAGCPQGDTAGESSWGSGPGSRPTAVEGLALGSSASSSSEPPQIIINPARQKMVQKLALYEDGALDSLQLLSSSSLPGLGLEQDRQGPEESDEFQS
How it was run: as §1

MOLM14 F691L cells = assay: MOLM14 F691L cell viability assay (Cell Titer Glo); format: cell-based
Procedure: Both cell lines have activated FLT3 receptors, each of which carry additional resistance mutations in the kinase domain (D835Y and F691L, respectively).
MOLM14 D835Y and MOLM14 F691L cells were grown in RPMI-1640 media supplemented with 20% fetal bovine serum (FBS). For viability/cytotoxicity assessments, cells were seeded into 1536-well white polystyrene tissue culture-treated Greiner plates using a Multidrop Combi dispenser (ThermoFisher), in final volume 5 μL of growth media per well, at a density of 1000 cells per well. After cell addition, 23 nL of test compound were transferred into individual wells (22 doses tested for each test compound, with a 1:2 dilution series starting at 10 μM) via a 1536 pin-tool. Bortezomib (final concentration 2.3 μM) was used as a positive control for cell cytotoxicity. Plates were incubated for 48 hours at standard incubator conditions covered by a stainless steel gasketed lid to prevent evaporation. 48 hours post compound addition, 3 μL of Cell Titer Glo (Promega) were added to each well and plates were incubated at room temperature for 15 minutes with the stainless-steel lid in place. Luminescence readings were taken using a Viewlux imager (PerkinElmer) with a 2 second exposure time per plate.

MOLM14 D835Y cells = assay: MOLM14 D835Y cell viability assay (Cell Titer Glo); format: cell-based
How it was run: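 MOLM14 cells carrying FLT3 D835Y or F691L were seeded at 1000 cells/well in RPMI-1640 with 20% FBS and dosed at 22 concentrations, 1:2 dilutions from 10 μM. Viability after 48 h by Cell Titer Glo luminescence; 2.3 μM bortezomib as cytotoxic control.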

THP-1-Blue NF-κB cells = assay: NF-kB SEAP reporter assay in THP-1-Blue NF-κB cells; format: cell-based; conditions: 24 hours
Procedure: THP-1-Blue NF-κB cells (InvivoGen) carrying a stable integrated NF-κB-inducible secreted embryonic alkaline phosphatase (SEAP) reporter construct were plated at a concentration of 1×10^5 cells per well. The cells were stimulated with Pam3CSK4 (1 ng/mL) or hIL1B (1 ng/mL). After 10-20 minutes, the cells were then treated with vehicle (DMSO) or serial dilutions of the test compounds (10 doses tested for each test compound, with a 1:10 dilution series starting at 1 μM or 3 μM) with a final volume of 200 μL for 24 hours at 37° C. After 24 hours, the cells were centrifuged and 20 μL supernatant was incubated with 180 μL QUANTI-Blue reagent at 37° C. for 30-60 minutes. The levels of NF-κB-induced gene expression were measured in a microplate reader at 620 nm.

[1] = stimulated with Pam3CSK4 (1 ng/mL), read-out: NF-κB Pam3SCK4 IC50
[2] = stimulated with hIL1B (1 ng/mL), read-out: NF-κB IL1B IC50

SMILES	IC50 (IRAK4)	IC50 (FLT3)	IC50 (IRAK1)	IC50 (MOLM14 F691L cells; 48 hours)	IC50 (MOLM14 D835Y cells; 48 hours)	IC50 (THP-1-Blue NF-κB cells; [1])	IC50 (THP-1-Blue NF-κB cells; [2])	IC50 (MOLM14 F691L cells; Homo sapiens, MOLM-14, 48 h)	IC50 (MOLM14 D835Y cells; Homo sapiens, MOLM-14, 48 h)
COc1cc2ncc(-c3cccc(N[C@H]4CNC[C@@H]4F)n3)n2nc1C(C)(O)C(F)(F)F (single isomer, unassigned; fast-eluting) [Compound 133]	< 0.5 nM	< 0.5 nM	3320 nM	969 nM	86 nM				
COc1cc2ncc(-c3nc(N[C@@H]4CCCNC4)c(F)cc3F)n2nc1C1CC1 [Compound 106, (R)-6-(6-cyclopropyl-7-methoxyimidazo[1,2-b]pyridazin-3-yl)-3,5-difluoro-N-(piperidin-3-yl)pyridin-2-amine]	0.8 nM	< 0.5 nM	15 nM			63 nM	59 nM	29 nM	3 nM
COc1cc2ncc(-c3nc(N[C@H]4CNC[C@@H]4F)c(F)cc3F)n2nc1C1CC1 [Compound 107, 6-(6-cyclopropyl-7-methoxyimidazo[1,2-b]pyridazin-3-yl)-3,5-difluoro-N-((3S,4S)-4-fluoropyrrolidin-3-yl)pyridin-2-amine]	< 0.5 nM	< 0.5 nM	3 nM			18 nM	15 nM	137 nM	11 nM
COc1cc2ncc(-c3nc(N[C@@H]4CCCNC4)c(F)cc3F)n2nc1C(C)(C)O [Compound 127, (R)-2-(3-(3,5-difluoro-6-(piperidin-3-ylamino)pyridin-2-yl)-7-methoxyimidazo[1,2-b]pyridazin-6-yl)propan-2-ol]	16 nM	< 0.5 nM	146 nM			254 nM	359 nM	6120 nM	1220 nM
c1cc(N[C@@H]2CCCNC2)nc(-c2cnc3ccc(-c4cnn5ccccc45)nn23)c1 [Compound 19, (R)-N-(piperidin-3-yl)-6-(6-(pyrazolo[1,5-a]pyridin-3-yl)imidazo[1,2-b]pyridazin-3-yl)pyridin-2-amine]	3 nM	< 0.5 nM	194 nM						402 nM
COc1cc2ncc(-c3cccc(N[C@H]4CNCC[C@@H]4F)n3)n2nc1C1CC1 [Compound 102, 6-(6-cyclopropyl-7-methoxyimidazo[1,2-b]pyridazin-3-yl)-N-((3S,4S)-4-fluoropiperidin-3-yl)pyridin-2-amine]	1 nM	< 0.5 nM	109 nM			135 nM	254 nM	388 nM	34 nM
F[C@H]1CNC[C@@H]1Nc1cccc(-c2cnc3ccc(-c4cnn5ccccc45)nn23)n1 [Compound 9, N-((3S,4S)-4-fluoropyrrolidin-3-yl)-6-(6-(pyrazolo[1,5-a]pyridin-3-yl)imidazo[1,2-b]pyridazin-3-yl)pyridin-2-amine]	7 nM	< 0.5 nM	81 nM						101 nM
COc1cc2ncc(-c3cccc(N[C@H]4CNC[C@@H]4F)n3)n2nc1C1CC1 [Compound 96, 6-(6-cyclopropyl-7-methoxyimidazo[1,2-b]pyridazin-3-yl)-N-((3S,4S)-4-fluoropyrrolidin-3-yl)pyridin-2-amine]	3 nM	0.6 nM	153 nM			93 nM	121 nM	673 nM	55 nM
COc1cc2ncc(-c3cccc(N[C@@H]4CCNC4)n3)n2nc1C1CC1 [Compound 97, (R)-6-(6-cyclopropyl-7-methoxyimidazo[1,2-b]pyridazin-3-yl)-N-(pyrrolidin-3-yl)pyridin-2-amine]	2 nM	0.6 nM	253 nM						34 nM
COc1cc2ncc(-c3cccc(N[C@H]4CNC[C@@H]4C(F)(F)F)n3)n2nc1C1CC1 [Compound 99, 6-(6-cyclopropyl-7-methoxyimidazo[1,2-b]pyridazin-3-yl)-N-((3R,4S)-4-(trifluoromethyl)pyrrolidin-3-yl)pyridin-2-amine]	0.5 nM	0.6 nM	821 nM			121 nM	340 nM	269 nM	17 nM
COc1cc2ncc(-c3nc(N[C@H]4CNC[C@@H]4F)c(F)cc3F)n2nc1C(C)(C)O [Compound 126, 2-(3-(3,5-difluoro-6-(((3S,4S)-4-fluoropyrrolidin-3-yl)amino)pyridin-2-yl)-7-methoxyimidazo[1,2-b]pyridazin-6-yl)propan-2-ol]	4 nM	< 0.5 nM	135 nM			92 nM	121 nM	1540 nM	109 nM
COc1cc2ncc(-c3nc(N[C@H]4CNCC[C@@H]4F)c(F)cc3F)n2nc1C1CC1 [Compound 108, 6-(6-cyclopropyl-7-methoxyimidazo[1,2-b]pyridazin-3-yl)-3,5-difluoro-N-((3S,4S)-4-fluoropiperidin-3-yl)pyridin-2-amine]	0.6 nM	< 0.5 nM	5 nM			30 nM	13 nM	29 nM	3 nM
COc1cc2ncc(-c3nc(N[C@H]4CNCC[C@@H]4F)c(F)cc3F)n2nc1C(C)(C)O [Compound 128, 2-(3-(3,5-difluoro-6-(((3S,4S)-4-fluoropiperidin-3-yl)amino)pyridin-2-yl)-7-methoxyimidazo[1,2-b]pyridazin-6-yl)propan-2-ol]	6 nM	< 0.5 nM	129 nM			108 nM	196 nM	386 nM	34 nM
